Several values for one entry are separate records, joined by “and”; a condition that tells them apart may be missing. Equal entries are not always repeated.
Details: Gas, Frequency=0.05 MHz, Single path-length method

FC(F)(F)C(F)(F)C(F)(F)F [octafluoropropane]
Details | speed of sound
251.1 K, 62.4 kPa | 106.76 m/s
251.1 K, 71.8 kPa | 106.39 m/s
251.1 K, 80.5 kPa | 106.08 m/s
251.1 K, 89.7 kPa | 105.72 m/s
251.1 K, 102 kPa | 105.24 m/s
251.1 K, 118.2 kPa | 104.61 m/s
251.1 K, 143.1 kPa | 103.57 m/s
251.1 K, 167.2 kPa | 102.56 m/s
256.3 K, 63.7 kPa | 107.91 m/s
256.3 K, 73.3 kPa | 107.57 m/s
256.3 K, 82.2 kPa | 107.26 m/s
256.3 K, 91.7 kPa | 106.91 m/s
256.3 K, 104.3 kPa | 106.47 m/s
256.3 K, 120.9 kPa | 105.85 m/s
256.3 K, 146.4 kPa | 104.86 m/s
256.3 K, 171.2 kPa | 103.89 m/s
256.3 K, 198.4 kPa | 102.79 m/s
256.3 K, 221.3 kPa | 101.83 m/s
261.6 K, 65.1 kPa | 109.07 m/s
261.6 K, 74.9 kPa | 108.75 m/s
261.6 K, 84 kPa | 108.44 m/s
261.6 K, 93.7 kPa | 108.11 m/s
261.6 K, 106.6 kPa | 107.67 m/s
261.6 K, 123.6 kPa | 107.08 m/s
261.6 K, 149.8 kPa | 106.13 m/s
261.6 K, 175.2 kPa | 105.21 m/s
261.6 K, 203.2 kPa | 104.16 m/s
261.6 K, 226.7 kPa | 103.22 m/s
261.6 K, 233.4 kPa | 102.97 m/s
261.6 K, 253.9 kPa | 102.14 m/s
266.8 K, 66.4 kPa | 110.2 m/s
266.8 K, 76.4 kPa | 109.87 m/s
266.8 K, 85.7 kPa | 109.58 m/s
266.8 K, 95.7 kPa | 109.25 m/s
266.8 K, 108.8 kPa | 108.83 m/s
266.8 K, 126.3 kPa | 108.28 m/s
266.8 K, 153 kPa | 107.37 m/s
266.8 K, 179.2 kPa | 106.48 m/s
266.8 K, 207.8 kPa | 105.46 m/s
266.8 K, 232.2 kPa | 104.58 m/s
266.8 K, 238.9 kPa | 104.32 m/s
266.8 K, 260 kPa | 103.52 m/s
272.1 K, 67.8 kPa | 111.33 m/s
272.1 K, 78 kPa | 111.03 m/s
272.1 K, 87.5 kPa | 110.74 m/s
272.1 K, 97.7 kPa | 110.44 m/s
272.1 K, 111.1 kPa | 110.02 m/s
272.1 K, 128.9 kPa | 109.46 m/s and 109.47 m/s
272.1 K, 156.4 kPa | 108.62 m/s and 108.61 m/s
272.1 K, 183.1 kPa | 107.74 m/s
272.1 K, 212.6 kPa | 106.77 m/s
272.1 K, 237.5 kPa | 105.93 m/s
272.1 K, 244.5 kPa | 105.69 m/s
272.1 K, 266.3 kPa | 104.92 m/s
277.4 K, 69.1 kPa | 112.44 m/s
277.4 K, 79.6 kPa | 112.15 m/s
277.4 K, 89.3 kPa | 111.87 m/s
277.4 K, 99.7 kPa | 111.58 m/s
277.4 K, 113.4 kPa | 111.18 m/s
277.4 K, 131.6 kPa | 110.66 m/s
277.4 K, 159.7 kPa | 109.81 m/s
277.4 K, 187.1 kPa | 108.99 m/s
277.4 K, 217.3 kPa | 108.05 m/s
277.4 K, 242.9 kPa | 107.24 m/s
277.4 K, 250.1 kPa | 107.02 m/s
277.4 K, 272.5 kPa | 106.29 m/s
282.7 K, 70.4 kPa | 113.54 m/s
282.7 K, 81.2 kPa | 113.28 m/s
282.7 K, 91 kPa | 113 m/s
282.7 K, 101.6 kPa | 112.71 m/s
282.7 K, 115.6 kPa | 112.32 m/s
282.7 K, 134.3 kPa | 111.82 m/s
282.7 K, 163 kPa | 111.01 m/s
282.7 K, 191.1 kPa | 110.22 m/s
282.7 K, 222 kPa | 109.31 m/s
282.7 K, 248.3 kPa | 108.54 m/s
282.7 K, 255.6 kPa | 108.32 m/s
282.7 K, 278.6 kPa | 107.62 m/s
287.9 K, 71.8 kPa | 114.63 m/s
287.9 K, 82.7 kPa | 114.36 m/s
287.9 K, 92.8 kPa | 114.11 m/s
287.9 K, 103.6 kPa | 113.84 m/s
287.9 K, 117.9 kPa | 113.46 m/s
287.9 K, 136.9 kPa | 112.97 m/s
287.9 K, 166.3 kPa | 112.19 m/s
287.9 K, 195 kPa | 111.42 m/s
287.9 K, 226.7 kPa | 110.56 m/s

— the NIST ThermoML archive (doi:10.1021/acs.jced.6b00536)
